Assay results: PMC12528448, “Resistance to CDK7 inhibitors directed by acquired mutation of a conserved residue in cancer cells” (The EMBO Journal, 2025)
Where “and” joins values, the source holds several entries; their conditions need not be identical. Equal values may be shown once.

Experiments:
Assay type in all cases: cell-based, human
22Rv1 cells = experiment: Growth assay (SRB), 22Rv1
Experimental: (§1) To determine the IC50 of drug treatments on growth, cells were seeded in 96-well culture plates. Two days after seeding, the cells were treated with increasing concentrations of drugs and incubated for 4 days. Cell number was determined using the SRB assay (Skehan et al, [1990]), and IC50 values were calculated using non-linear regression curve fitting in GraphPad Prism v10. For all other growth experiments, cells were seeded into 96-well plates, and appropriate drugs were added 2 days after seeding. Cells were then incubated in an IncuCyte Zoom live-cell imager, with cell confluency measured every 6 h. Cell doubling times were determined by non-linear curve fitting (exponential growth equation) in GraphPad Prism v10.

22Rv1-SamR cells = experiment: Growth assay (SRB), Samuraciclib-resistant 22Rv1; details: for % Growth: 22Rv1 SamR, 4 days, biological reps
Experimental: as §1

MCF7 cells = experiment: Growth assay (SRB), MCF7; details: for % Growth: biological reps
Outline: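 SRB: dosing at day 2 post-seed, rising concentrations, 4 d incubation, IC50 via non-linear fit. IncuCyte: drug at day 2, confluency read q6h, doubling time from exponential curve fit.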

MCF7-CDK7-D97N cells = experiment: Growth assay (SRB), MCF7 CDK7-D97N knock-in; details: for % Growth: MCF7 CDK7 D99N, biological reps
Experimental: as §1
(§2) Alt-R^TM S.p. Cas9 nuclease V3, Alt-R CRISPR-Cas9 crRNA, TracrRNA and the donor templates were obtained from Integrated DNA Technologies. […] Cells were treated with 0.7 µM of Alt-R HDR Enhancer V2 to improve HRD efficiency. Sequences of the CRISPRs in the crRNA and the donor templates are shown in the Reagents and tools table. Donor templates were designed to include non-coding substitutions to aid genome DNA PCR for identifying knock-in events and to facilitate cloning; these substitutions are noted in the Reagents and tools table.

22Rv1-CDK7-D97N cells = experiment: Growth assay (SRB), 22Rv1 CDK7-D97N knock-in pool; details: 22Rv1 CDK7 D99N
Experimental: as §1, §2

LNCaP cells = experiment: Growth assay (SRB), LNCaP
Experimental: as §1

SMILES: CC(C)c1cnn2c(NCc3ccccc3-n3cccn3)nc(OC3CCCNC3)nc12 (centres unmarked) [LDC4297]
- % Growth (22Rv1 cells; 22Rv1, Log10 Conc. (nM) 0.09): 67.07% and 96.13%
- % Growth (22Rv1 cells; 22Rv1, Log10 Conc. (nM) 0.69): 66.51% and 88.13%
- % Growth (22Rv1 cells; 22Rv1, Log10 Conc. (nM) 1.29): 42.25% and 51.76%
- % Growth (22Rv1 cells; 22Rv1, Log10 Conc. (nM) 1.89): 9.89% and 17.57%
- % Growth (22Rv1 cells; 22Rv1, Log10 Conc. (nM) 2.49): 11.47% and 9.07%
- % Growth (22Rv1 cells; 22Rv1, Log10 Conc. (nM) 3.10): 2.69% and 4.03%
- % Growth (22Rv1 cells; 22Rv1, Log10 Conc. (nM) 3.70): -4.63% and -0.97%
- % Growth (22Rv1 cells; 22Rv1, Log10 Conc. (nM) 4.30): -12.52% and -9.59%
- % Growth (22Rv1 cells; 22Rv1, Log10 Conc. (nM) -0.52): 95.29% and 95.79%
- % Growth (22Rv1 cells; 22Rv1, Log10 Conc. (nM) 0.09, 4 days, biological reps): 97.43% and 97.15%
- % Growth (22Rv1 cells; 22Rv1, Log10 Conc. (nM) 0.69, 4 days, biological reps): 91.35% and 89.50%
- % Growth (22Rv1 cells; 22Rv1, Log10 Conc. (nM) 1.29, 4 days, biological reps): 69.89% and 67.14%
- % Growth (22Rv1 cells; 22Rv1, Log10 Conc. (nM) 1.89, 4 days, biological reps): 34.11% and 32.16%
- % Growth (22Rv1 cells; 22Rv1, Log10 Conc. (nM) 2.49, 4 days, biological reps): 25.80% and 22.21%
- % Growth (22Rv1 cells; 22Rv1, Log10 Conc. (nM) 3.10, 4 days, biological reps): 19.07% and 18.11%
- % Growth (22Rv1 cells; 22Rv1, Log10 Conc. (nM) 3.70, 4 days, biological reps): 12.19% and 10.17%
- % Growth (22Rv1 cells; 22Rv1, Log10 Conc. (nM) 4.30, 4 days, biological reps): -1.74% and -5.36%
- % Growth (22Rv1 cells; 22Rv1, Log10 Conc. (nM) -0.52, 4 days, biological reps): 96.00% and 93.75%
- Resistance (Fold), fold increase in IC50 of 22Rv1-SamR relative to 22Rv1 (22Rv1-SamR cells; 22Rv1-SamR vs 22Rv1): 45 fold
- % Growth (22Rv1-SamR cells; Log10 Conc. (nM) 0.09): 97.61% and 104.31%
- % Growth (22Rv1-SamR cells; Log10 Conc. (nM) 0.69): 95.33% and 95.56%
- % Growth (22Rv1-SamR cells; Log10 Conc. (nM) 1.29): 91.02% and 93.49%
- % Growth (22Rv1-SamR cells; Log10 Conc. (nM) 1.89): 85.93% and 89.36%
- % Growth (22Rv1-SamR cells; Log10 Conc. (nM) 2.49): 74.46% and 80.17%
- % Growth (22Rv1-SamR cells; Log10 Conc. (nM) 3.10): 45.54% and 51.37%
- % Growth (22Rv1-SamR cells; Log10 Conc. (nM) 3.70): 16.52% and 21.74%
- % Growth (22Rv1-SamR cells; Log10 Conc. (nM) 4.30): -6.89% and -7.33%
- % Growth (22Rv1-SamR cells; Log10 Conc. (nM) -0.52): 95.69% and 97.10%
- IC50 (MCF7 cells; 4 days, SRB): 7.3 nM
- % Growth (MCF7 cells; Log10 Conc. (nM) 0.09, 4 days): 91.12% and 94.99% and 92.39%
- % Growth (MCF7 cells; Log10 Conc. (nM) 0.69, 4 days): 52.29% and 66.02% and 70.05%
- % Growth (MCF7 cells; Log10 Conc. (nM) 1.29, 4 days): 18.87% and 28.85% and 28.07%
- % Growth (MCF7 cells; Log10 Conc. (nM) 2.49, 4 days): 9.82% and 18.59% and 16.86%
- % Growth (MCF7 cells; Log10 Conc. (nM) 3.70, 4 days): -7.82% and -0.67% and -1.06%
- % Growth (MCF7 cells; Log10 Conc. (nM) 4.30, 4 days): -10.31% and -1.91% and -1.69%
- % Growth (MCF7 cells; Log10 Conc. (nM) -0.52, 4 days): 95.85% and 97.88% and 93.10%
- Resistance (Fold) (MCF7-CDK7-D97N cells; MCF7-CDK7-D97N vs MCF7 WT): 38.8 fold
- IC50 (MCF7-CDK7-D97N cells; MCF7-CDK7-D97N, 4 days, SRB): 284 nM
- % Growth (MCF7-CDK7-D97N cells; Log10 Conc. (nM) 0.09, 4 days): 97.54% and 102.97% and 111.53%
- % Growth (MCF7-CDK7-D97N cells; Log10 Conc. (nM) 0.69, 4 days): 89.88% and 95.95% and 106.23%
- % Growth (MCF7-CDK7-D97N cells; Log10 Conc. (nM) 1.29, 4 days): 86.58% and 89.18% and 107.98%
- % Growth (MCF7-CDK7-D97N cells; Log10 Conc. (nM) 1.89, 4 days): 78.14% and 75.55% and 98.88%
- % Growth (MCF7-CDK7-D97N cells; Log10 Conc. (nM) 2.49, 4 days): 36.43% and 41.92% and 46.72%
- % Growth (MCF7-CDK7-D97N cells; Log10 Conc. (nM) 3.10, 4 days): 15.57% and 25.31% and 26.65%
- % Growth (MCF7-CDK7-D97N cells; Log10 Conc. (nM) -0.52, 4 days): 94.29% and 106.05% and 120.50%
- % Growth (22Rv1-CDK7-D97N cells; Log10 Conc. (nM) 0.09): 99.08% and 97.65%
- % Growth (22Rv1-CDK7-D97N cells; Log10 Conc. (nM) 0.69): 98.24% and 92.35%
- % Growth (22Rv1-CDK7-D97N cells; Log10 Conc. (nM) 1.29): 97.25% and 79.61%
- % Growth (22Rv1-CDK7-D97N cells; Log10 Conc. (nM) 2.49): 79.12% and 58.88%
- % Growth (22Rv1-CDK7-D97N cells; Log10 Conc. (nM) 3.10): 40.19% and 24.40%
- % Growth (22Rv1-CDK7-D97N cells; Log10 Conc. (nM) 4.30): -8.93% and -12.96%
- % Growth (22Rv1-CDK7-D97N cells; Log10 Conc. (nM) -0.52): 101.69% and 97.12%
- % Growth (LNCaP cells; Log10 Conc. (nM) 0.09): 103.68% and 97.62%
- % Growth (LNCaP cells; Log10 Conc. (nM) 0.69): 77.76% and 65.52%
- % Growth (LNCaP cells; Log10 Conc. (nM) 1.29): 48.12% and 34.31%
- % Growth (LNCaP cells; Log10 Conc. (nM) 3.10): 4.14% and -5.07%
- % Growth (LNCaP cells; Log10 Conc. (nM) 3.70): -12.69% and -19.92%
- % Growth (LNCaP cells; Log10 Conc. (nM) 4.30): -12.08% and -21.22%
- % Growth (LNCaP cells; Log10 Conc. (nM) -0.52): 92.16% and 87.19%
